Results on one molecule are retold here after patent US10716762B2, “Transmucosal administration system for a pharmaceutical drug” (LTS Lohmann Therapie-Systeme AG, priority 2012, dated 2020).

Structures are written as SMILES.

The nature of data set [1]: First-pass metabolism of idebenone through the liver after oral administration. The format is in vivo. The note with it: after absorption in the gut. The source says:
As a lipophilic compound idebenone is well absorbed in the gastrointestinal tract after conventional oral administration, which is the normal route for administering said compound. Dosage forms such as tablets or capsules have been used in clinical trials and as marketed product. In the course of our investigations on the pharmacological profile of idebenone, we discovered that the compound, after being absorbed in the gut, is metabolized very quickly during its first passage through the liver (“first-pass-effect”). […] Hepatic metabolism of idebenone results in side chain oxidation, reduction of the quinone ring, sulphate and glucuronide conjugation and subsequent renal excretion. The high liver metabolism greatly reduces the potentially high plasma levels of the pharmacologically active idebenone. Because of this strong first pass metabolism, oral administration of idebenone requires high doses of the compound to achieve pharmacologically efficacious plasma levels in the body. Said high doses can result in unwanted side effects such as diarrhea.

Data set [2] in a line: Pharmacokinetics of idebenone after oromucosal (oral wafer) vs. oral (gavage) administration, three way cross-over study. The note with it: oral administration by gavage vs. oral-mucosal application. The format is in vivo, female Beagle dogs. Here is the method: Plasma levels of idebenone were studied after the administration of two different thin film formulations (oral wafers) administered via the oromucosal route and compared to the profile obtained when idebenone is dosed by the oral route (gavage) in a micro-emulsion. The doses used in this study were 30 mg oromucosal (oral wafer A, suspension type), 15 mg oromucosal (oral wafer B, solid solution type) and 300 mg oral (TPGS/Miglyol microemulsion administered by oral gavage). The study was a three way cross-over study with one week wash-out between administrations. Formulations were administered to female Beagle dogs under fasted conditions. The pharmacokinetic exposure of free (unconjugated) idebenone and its total metabolites (total idebenone, total QS10, total QS6, and total QS4) was determined for each formulation.
Blood samples were collected at several time points over 6 hours after administration. Concentrations of idebenone in plasma were measured by HPLC-MS/MS and pharmacokinetic parameters were calculated.
For this, idebenone was separated and quantified by HPLC-MS/MS: For HPLC, a SYNERGI™ 4μ MAX-RP (50×2 mm) column (Phenomenex. Schlieren, Switzerland) was used. Column temperature: 50° C. […]
Once separated, idebenone was quantified by ESI-MS/MS (API 4000, Perkin-Elmer-Europe BV, Rotkreuz, Switzerland) in positive mode. […]

For data set [3] the following is noted: 536 patients, up to 360 mg t.i.d.; Thal et al., Neurology 61 (2003); cited from earlier work.

Turning to `COC1=C(OC)C(=O)C(CCCCCCCCCCO)=C(C)C1=O` [idebenone, 2,3-dimethoxy-5-methyl-6-(10-hydroxydecyl)-1,4-benzoquinone], the “idebenone metabolized during its first passage through the liver” value in data set [1] is “more than 98%”. Also, the “metabolic spectrum of idebenone” value in data set [2] is on record as “comparable”. The “treatment emergent adverse events compared to placebo” value in data set [3] is given as “no treatment emergent adverse events except some gastrointestinal irritations as well as a slight increase in orthopedic events”.
